Consider 90 compounds from a melting point compilation (Tetko et al.; mined from patent text by program, amines drawn as free bases though some values may be those of a salt).

Molecules are shown by their SMILES.

Compound `Cc1nnc2n1-c1ccccc1C(c1ccc(Cl)cc1)=NN2Cc1ccc(NS(C)(=O)=O)cc1` returned a melting point of 273 to 275 °C.
On to `COCCOc1nc2cc(-c3ccc(Cl)cc3)nnc2c2ccccc12`, for which the melting point lay within 148 to 150 °C.
For `CN(C)CSc1ccc(-n2cnnn2)cc1`, the melting point lay in the range of 56 to 57.5 °C.
Take `O=C1CN(C(=O)N2CCCC2)c2c(F)cccc2N1`: the melting point was 126 to 132 °C.
Regarding `Cc1ccc(Br)cc1Cn1c(C(F)F)nn(C)c1=O`, the melting point came out at 108 °C.
For the compound `COc1cc(NC2CC3CCC(C2)N3Cc2ccccc2)ccc1C(N)=O` (stereo not given), the melting point is 138 to 140 °C.
The compound `COc1cc2c(c3c1OC(C)(C)C3)C(c1cccc(N(C(C)=O)c3cccnc3)c1)=NC(C)(C)C2` registered a melting point of 157 to 158 °C.
In the case of `Cc1ccc(/C=C/c2nc(COc3ccc(CCCCn4ccnc4CCO)cc3)co2)cc1`, the melting point was 108 to 109 °C.
As for `C[Si](C)(C)c1c(CCC=O)cnc2c1CCO2`, the melting point lay within 59 to 60 °C.
In turn, `CCOC(=O)c1nc2ccccc2n(CCO)c1=O` showed a melting point of 137 to 138 °C.
`O=C(O)Cc1cc(S)n2ncnc2n1` showed a melting point of 283 to 286 °C.
The value for `CC(=O)OC1CC2=CC(=O)C3C4CCC(C(C)CCCC(C)C)C4(C)CCC3C2(C)C(OC(C)=O)C1` (stereo not given) was 121 to 122 °C; that for `Cc1c(Br)sc2ccc(Br)cc12` was 118 to 122 °C.
In the case of `Brc1ccc2c(c1)[nH]c1cc(Br)ccc12`, the melting point lay in the range of 224 to 225 °C.
Compound `COc1cccc(Nc2nc(NC(=O)C(C)(C)C)nc3[nH]c4ccccc4c23)c1` displayed a melting point of 267 °C.
In the case of `CCN1CC(=O)Nc2cc(Nc3ncc(Cl)c(Nc4ccccc4S(=O)(=O)C(C)C)n3)c(OC)cc2C1` it was 175 °C.
The value for `CC(=O)c1cc(F)cc(C#N)c1F` was 80 to 83 °C; that for `CCOC(=NS(C)(=O)=O)N1Cc2ccccc2-c2ccccc2C1` was 136 to 138 °C; that for `O=C(NC(c1ccccc1)(c1ccccc1)c1ccccc1)c1ccccc1` was 200 to 202 °C.
The value for `O=C(O)c1cn(-c2nnc(C(F)(F)F)s2)c2cc(F)c(F)cc2c1=O` was 272 to 276 °C; that for `COc1ccc(C2=CCCC(=O)O2)cc1` was 77.4 to 79.8 °C.
Turning to `CC(=O)c1ccc(-c2ccc(CC(=O)NC3CCN(Cc4ccc(Cl)c(Cl)c4)CC3)cc2)cc1`, the melting point is 184 °C.
In turn, `O=C(Nc1ccc([N+](=O)[O-])cc1)N(O)C1CCCCCCC1` had a melting point of 143 to 144 °C.
In the case of `CS(=O)(=O)c1cccc(-c2cc(N3CCOCC3)cc(Nc3ccc(OC(F)(F)F)cc3)n2)c1` it was 233 to 235 °C; in that of `C=CCOC(=O)CC[C@H](NC(=O)Nc1ccc(COC(=O)Oc2ccc([N+](=O)[O-])cc2)cc1)C(=O)OCC=C`, 106 to 107 °C.
`COc1ccc2c(c1)SC(C#N)=C(N)CO2` showed a melting point of 203 to 205 °C.
`COc1ccc(CCN2CCN(C(=O)c3ccc(N(CCOC(C)C)C(=O)CCl)cc3)CC2)cc1` returned a melting point of 139 to 140 °C.
With `Cc1ccc(N=C=C2C=CC=CN2)c(C)c1[N+](=O)[O-]`, the melting point fell in the range of 114 to 116 °C.
The compound `CCCCCCCCCCCCCCCC(=O)N[C@@H](CSC[C@H](O)CO)C(=O)O` displayed a melting point of 110 °C.
The value for `CCC(=O)N1N=C(c2ccc(N)c(C)c2)c2cc3c(cc2C[C@@H]1C)OCO3` was 176 to 178 °C; that for `CC(C)c1ccc(S(=O)(=O)n2c(Cc3cccc(C(=O)O)c3)cc3cc(Cl)ccc32)cc1` was 170 °C.
Take `COc1ccc2c(c1)C(=O)c1c-2c(N2CCNCC2)nc2ccccc12`: the melting point is 150 to 151 °C.
`Cc1ccc(-c2cnc(-c3ccc(C(F)(F)F)cc3)s2)s1` yielded a melting point of 150 to 152 °C.
As for `O=C(OCCCSc1cccc2nccn12)c1ccccc1`, the melting point was in the range of 60 to 61 °C.
The value for `COc1cc(-c2nn(C)c(C(F)(F)F)c2Cl)c(F)cc1Cl` was 70 to 71 °C; that for `CC(=O)OCCn1c(=O)sc2ccc(-c3nc4ccccn4c3C)cc21` was 113 to 115 °C.
In turn, `NS(=O)(=O)c1c(Cl)cccc1-c1ccccc1Cl` yielded a melting point of 151 to 153 °C.
With `O=C(CCNC(=O)[C@H](Cc1ccc(-c2ccccc2)cc1)NCP(=O)(Oc1ccccc1)Oc1ccccc1)OCc1ccccc1`, the melting point lay within 83 to 84 °C.
In the case of `CCCc1ccc(-c2ccc(C(=O)N3Cc4cccn4Cc4ccccc43)cc2)cc1`, the melting point lay within 118 to 120 °C.
As to `O=C(c1ccccc1)c1ccc(OCc2cccnc2)cc1O`, the melting point is 88 to 90 °C.
The value for `NC(=O)c1ccc(CN2CCN(C(=O)c3cc(C(F)(F)F)cc(C(F)(F)F)c3)[C@H](Cc3c[nH]c4ccccc34)C2)cc1` was 120 to 126 °C.
The compound `Nc1scc2c(C(=O)NC3CC3)nn(-c3ccc(Cl)cc3)c(=O)c12` registered a melting point of 188 to 190 °C.
As to `N#CN(Cc1ccc([N+](=O)[O-])cc1)C(=O)CCCC(=O)N(C#N)Cc1ccc([N+](=O)[O-])cc1`, the melting point is 146 to 148 °C.
`COC(=O)c1cc(C)cc(NC(=O)c2nnn[nH]2)c1O` gave a melting point of 238 to 240 °C.
`c1ccc(Cn2ncc3c2Cc2cn[nH]c2-3)cc1` had a melting point of 61 to 72 °C.
Take `CC(=O)c1ccc(S(=O)(=O)NCCO)cc1`: the melting point was in the range of 119 to 121 °C.
The value for `C=C(C)C(=O)Nc1ccc(C(=O)O)c(O)c1` was 220 to 222 °C; that for `CN1CCC(c2c[nH]c3ccc(/C=C/S(N)(=O)=O)cc23)CC1` was 208 to 209 °C; that for `CC(=O)n1ncc2c(OCc3ccccc3)cc(C)cc21` was 91 to 93 °C.
In turn, `CCCn1nc2c(N)nc3c(c2c1CCCc1cc(-c2ccccc2)no1)CCCC3` showed a melting point of 154 to 155 °C.
In the case of `CCCCCCCCCCNC(=O)C=Cc1cccc(N2CC(C(=O)O)CC2=O)c1` (stereo not given) it was 151 to 152 °C; in that of `Cn1cc(-c2ccccc2)c(=O)c(-c2cc(Cl)cc(Cl)c2)c1`, 131 to 135 °C.
The compound `C=CCNC(=O)N1CC(Oc2ccc(F)cc2)C1` yielded a melting point of 92 to 94 °C.
`CC(=NOCc1ccccc1Nc1c(Cl)ccc(C)c1Cl)C(=O)O` came in with a melting point of 166 to 171 °C.
In turn, `OCc1nn(-c2ccccc2)c2c1CCCC2` registered a melting point of 75 to 77 °C.
The value for `O=C(/C=C/c1ccc(C(=O)Nc2cccc(Nc3nc(-c4cccnc4)cs3)c2)cc1)NO` was 101 °C; that for `CC1(c2ccc(N)cc2)C(=O)Nc2cc(Cl)cc(Cl)c2C1=O` (stereo not given) was 226 to 227 °C; that for `CCOC(=O)C(C)Oc1ncn(-c2ccc(OC)cc2)n1` (stereo not given) was 62 to 64 °C.
In turn, `CCCCCc1ccc(-c2ccc(C(C)=O)cc2)cc1` came in with a melting point of 81 to 82 °C.
Turning to `CCCCCCCCCCCCCCOc1ccc(CN(C(=O)NC)c2cccc(COC(=O)NC)c2)cc1`, the melting point is 107 to 109 °C.
For the compound `CC1(CN2CCC(Oc3ccc(C(F)(F)F)cc3)CC2)Cn2cc([N+](=O)[O-])nc2O1` (stereo not given), the melting point lay within 113 to 114 °C.
Regarding `O=C(NCc1cccnc1)C1CCCCC1`, the melting point is 90 °C.
The value for `CC1(C)C(=O)Nc2cc3[nH]c(-c4c[nH]c5ccccc45)nc3cc21` was 243 to 245 °C.
Take `COc1ccc(C(=O)CC(=O)C(F)F)cc1F`: the melting point was in the range of 70 to 72 °C.
In the case of `COc1cc(OC)c([C@@H]2CCCC[C@H]2O)c(O)c1C(C)=O` (relative stereo) it was 162 to 164 °C.
`OCCC1CC2CCN1CC2` (stereo not given) showed a melting point of 62 to 64 °C.
Regarding `COc1ccc(OC)c(Sc2nc3c(N)ncnc3n2CCC=C(C)C)c1`, the melting point was in the range of 148 to 150 °C.
In the case of `O=C(Oc1ccccc1)N1CCC2(CC1)SC(c1ccc(Cl)c(Cl)c1)c1ccccc12` (stereo not given) it was 200 to 202 °C; in that of `CCOC(=O)c1cc2cc(C=O)cc(C(C)CC)c2oc1=O` (stereo not given), 89 to 90 °C.
`C#Cc1nc(-c2ccco2)c2ncn(Cc3ccc(OC)cc3)c2n1`: the melting point was found to be 155 °C.
In the case of `O=C(O)CCc1ccc2c(c1)Cc1ccccc1CO2` it was 181 to 183 °C; in that of `CC1(C)CC(=O)c2cc(O)ccc2O1`, 158 °C.
The value for `Cc1c(OCCn2ccnc2)ccc2c1CC/C(=C\c1cccs1)C2=O` was 182 to 184 °C; that for `CCOC(=O)C(=O)NNC(=O)c1cc2cccc(N(C)S(=O)(=O)c3cccs3)c2[nH]1` was 133 to 134 °C; that for `CCCc1c(O)ccc2c1CCCC2=O` was 159 to 160 °C.
The value for `N#Cc1c(F)cccc1S(=O)(=O)N(Cl)Cl` was 149 to 152 °C; that for `CCOC(=O)Cc1nc(-c2ccc(Cl)cc2)oc1-c1ccco1` was 105 to 106 °C; that for `N#Cc1c(N2CCc3ccccc3CC2)nc(COC2CCCCO2)[nH]c1=O` (stereo not given) was 180 to 183 °C.
For the compound `CS(=O)(=O)c1ccc(-c2cnc3cnc(-c4ccc(O)cc4)nc3c2)cc1`, the melting point fell in the range of 306 to 307 °C.
`CN(CC(=O)O)C(=O)c1c(N)cccc1I` showed a melting point of 147 to 149 °C.
On to `CN1c2ccc(-c3cccc4ccccc34)cc2Sc2cc(-c3cccc4ccccc34)ccc21`, for which the melting point lay within 185 to 190 °C.
As for `CCCCC(=O)NNC(=O)c1ccc([N+](=O)[O-])cc1`, the melting point lay in the range of 185 to 187 °C.
The compound `COC(=O)[C@@H](NS(=O)(=O)c1ccc(Br)cc1)C(C)C` showed a melting point of 88 to 90 °C.
In turn, `CC(=O)NC(CSC(=O)c1ccccc1OC(C)=O)C(=O)O` (stereo not given) displayed a melting point of 120 to 122 °C.
As for `Cc1cnc2[nH]cc(/C=C3\N=C(NCC4CC4)NC3=O)c2c1`, the melting point was in the range of 319 to 320 °C.
For `COc1cc(C)nc(NCn2cncn2)n1`, the melting point lay in the range of 191 to 193 °C.
As for `O=C1c2ccccc2C(=O)N1[C@@H]1C=CC[C@H]1O` (relative stereo), the melting point is 114 to 116 °C.
As to `CCOC(=O)c1cc2c(CC)nc(CC)cc2n(Cc2ccc(-c3ccccc3-c3nnn(C(c4ccccc4)(c4ccccc4)c4ccccc4)n3)cc2)c1=O`, the melting point fell in the range of 110 to 112 °C.
The value for `CCN(CCCCCC(C)O)C(=O)CCC(=O)c1ccc(NS(C)(=O)=O)cc1` (stereo not given) was 78 to 80 °C.
Consider `COc1ccccc1C(C#N)(CC1CCCCO1)Cn1cncn1` (stereo not given), for which the melting point lay within 120 to 121 °C.
